Source: ChEMBL document CHEMBL4251606, “Design and characterization of α-lipoic acyl shikonin ester twin drugs as tubulin and PDK1 dual inhibitors” (Eur J Med Chem, 2018)
pIC50: −log10 of the molar value. Activity calls are given as the source filed them. No cut-off for these calls is given here.

Legend:
HeLa [1] = test: Induction of apoptosis in human HeLa cells assessed as early apoptotic cells at 6 uM after 12 hrs by Annexin V-APC/propidium iodide staining-based FACScan flow cytometric analysis (reference value: 2.45%); assay type: functional
HeLa [2] = test: Induction of apoptosis in human HeLa cells assessed as necrotic cells at 6 uM after 36 hrs by Annexin V-APC/propidium iodide staining-based FACScan flow cytometric analysis (reference value: 0.725%); assay type: functional
HeLa [3] = test: Induction of apoptosis in human HeLa cells assessed as necrotic cells at 6 uM after 24 hrs by Annexin V-APC/propidium iodide staining-based FACScan flow cytometric analysis (reference value: 0.725%); assay type: functional
HeLa [4] = test: Reduction in glucose consumption in human HeLa cells at 2 to 8 uM; assay type: functional, cell-based
[5] = target: [Pyruvate dehydrogenase (acetyl-transferring)] kinase isozyme 1, mitochondrial (Homo sapiens) (UniProt Q15118); test: Inhibition of PDK1 in human HeLa cells assessed as increase in PDH-E1 alpha expression at 6 uM by Western blot analysis; assay type: cell-based
HeLa [6] = test: Antitumor activity against human HeLa cells xenografted in nude mouse assessed as reduction in tumor size at 2 mg/kg, ip administered once in every 2 days for 15 days relative to control; assay type: functional
HeLa [7] = test: Induction of apoptosis in human HeLa cells assessed as increase in Bax expression up to 8 uM after 24 hrs by Western blot analysis; assay type: functional, cell-based
HeLa [8] = test: Induction of apoptosis in human HeLa cells assessed as viable cells at 6 uM after 12 hrs by Annexin V-APC/propidium iodide staining-based FACScan flow cytometric analysis (reference value: 93%); assay type: functional; settings: read-out: Activity
HeLa [9] = test: Induction of mitochondrial membrane potential loss in human HeLa cells assessed as cells with low membrane potential at 4 uM after 12 hrs by JC-1 staining-based flow cytometric analysis (reference value: 9.31%); assay type: functional
HeLa [10] = test: Induction of mitochondrial membrane potential loss in human HeLa cells assessed as cells with high membrane potential at 2 uM after 12 hrs by JC-1 staining-based flow cytometric analysis (reference value: 85.8%); assay type: functional
HeLa [11] = test: Induction of apoptosis in human HeLa cells assessed as late apoptotic cells by measuring FL3-H+ cells at 6 uM after 36 hrs by propidium iodide staining-based FACScan flow cytometric analysis (reference value: 2.13%); assay type: functional
HeLa [12] = test: Induction of apoptosis in human HeLa cells assessed as late apoptotic cells at 6 uM after 12 hrs by Annexin V-APC/propidium iodide staining-based FACScan flow cytometric analysis (reference value: 3.84%); assay type: functional
HeLa [13] = test: Induction of apoptosis in human HeLa cells assessed as late apoptotic cells by measuring FL3-H+ cells at 2 uM after 12 hrs by propidium iodide staining-based flow cytometric analysis (reference value: 3.66%); assay type: functional
HeLa [14] = test: Induction of apoptosis in human HeLa cells assessed as late apoptotic cells at 1 uM after 24 hrs by Annexin V-APC/propidium iodide staining-based FACScan flow cytometric analysis (reference value: 7.22%); assay type: functional
HeLa [15] = test: Induction of apoptosis in human HeLa cells assessed as early apoptotic cells at 1 uM after 24 hrs by Annexin V-APC/propidium iodide staining-based FACScan flow cytometric analysis (reference value: 6.46%); assay type: functional
[16] = target: [Pyruvate dehydrogenase (acetyl-transferring)] kinase isozyme 1, mitochondrial (Homo sapiens) (UniProt Q15118); test: Inhibition of PDK1 in human HeLa cells assessed as decrease in PDH-E1 alpha p-ser300 expression at 6 uM by Western blot analysis; assay type: cell-based
HeLa [17] = test: Induction of apoptosis in human HeLa cells assessed as late apoptotic cells at 6 uM after 36 hrs by Annexin V-APC/propidium iodide staining-based FACScan flow cytometric analysis (reference value: 3.84%); assay type: functional
[18] = target: [Pyruvate dehydrogenase (acetyl-transferring)] kinase isozyme 1, mitochondrial (Homo sapiens) (UniProt Q15118); test: Inhibition of PDK1 in human HeLa cells assessed as increase in PDH-E1 alpha expression up to 8 uM by Western blot analysis; assay type: cell-based
Mus musculus = test: Inhibition of PDK1 in mouse xenografted with human HeLa cells assessed as upregulation of PDH-E1 alpha expression in tumor tissue at 1 to 2 mg/kg, ip administered once in every 2 days for 15 days by immunohistochemistry; assay type: functional, organism-based
HeLa [19] = test: Induction of apoptosis in human HeLa cells assessed as early apoptotic cells at 6 uM after 24 hrs by Annexin V-APC/propidium iodide staining-based FACScan flow cytometric analysis (reference value: 2.45%); assay type: functional
HeLa [20] = test: Antiproliferative activity against human HeLa cells after 24 hrs by MTT assay; assay type: functional, cell-based
HeLa [21] = test: Induction of apoptosis in human HeLa cells assessed as late apoptotic cells at 2 uM after 24 hrs by Annexin V-APC/propidium iodide staining-based FACScan flow cytometric analysis (reference value: 7.22%); assay type: functional
HeLa [22] = test: Induction of apoptosis in human HeLa cells assessed as late apoptotic cells at 4 uM after 24 hrs by Annexin V-APC/propidium iodide staining-based FACScan flow cytometric analysis (reference value: 7.22%); assay type: functional
[23] = target: [Pyruvate dehydrogenase (acetyl-transferring)] kinase isozyme 1, mitochondrial (Homo sapiens) (UniProt Q15118); test: Inhibition of PDK1 in human HeLa cells assessed as decrease in PDH-E1 alpha p-ser293 expression up to 8 uM by Western blot analysis; assay type: cell-based
HeLa [24] = test: Induction of apoptosis in human HeLa cells assessed as increase in caspase-3 cleavage up to 8 uM after 24 hrs by Western blot analysis; assay type: functional, cell-based
HeLa [25] = test: Induction of apoptosis in human HeLa cells assessed as increase in cleaved PARP expression up to 8 uM after 24 hrs by Western blot analysis; assay type: functional, cell-based
[26] = target: [Pyruvate dehydrogenase (acetyl-transferring)] kinase isozyme 1, mitochondrial (Homo sapiens) (UniProt Q15118); test: Inhibition of PDK1 in human HeLa cells assessed as decrease in PDH-E1 alpha p-ser232 expression at 6 uM by Western blot analysis; assay type: cell-based
HeLa [27] = test: Cell cycle arrest in human HeLa cells assessed as accumulation of cells at G2/M phase at 2 uM after 24 hrs by propidium iodide staining-based FACScan flow cytometric analysis (reference value: 16.82%); assay type: functional
HeLa [28] = test: Induction of apoptosis in human HeLa cells assessed as viable cells at 6 uM after 36 hrs by Annexin V-APC/propidium iodide staining-based FACScan flow cytometric analysis (reference value: 93%); assay type: functional; settings: read-out: Activity
HeLa [29] = test: Induction of mitochondrial membrane potential loss in human HeLa cells assessed as increase in green fluorescence at 2 to 4 uM by JC-1 staining-based fluorescence microscopic analysis; assay type: functional, cell-based
[30] = target: [Pyruvate dehydrogenase (acetyl-transferring)] kinase isozyme 1, mitochondrial (Homo sapiens) (UniProt Q15118); test: Inhibition of PDK1 in human HeLa cells assessed as decrease in PDH-E1 alpha p-ser300 expression up to 8 uM by Western blot analysis; assay type: cell-based
HeLa [31] = test: Induction of apoptosis in human HeLa cells assessed as late apoptotic cells by measuring FL3-H+ cells at 2.8 uM after 24 hrs by propidium iodide staining-based FACScan flow cytometric analysis (reference value: 2.14%); assay type: functional
L02 = test: Antiproliferative activity against human LO2 cells after 24 hrs by MTT assay; assay type: cell-based; settings: L02, 24 h
HeLa [32] = test: Induction of apoptosis in human HeLa cells assessed as late apoptotic cells by measuring FL3-H+ cells at 0.7 uM after 24 hrs by propidium iodide staining-based FACScan flow cytometric analysis (reference value: 2.14%); assay type: functional
HeLa [33] = test: Induction of apoptosis in human HeLa cells assessed as decrease in Bcl2 expression up to 8 uM after 24 hrs by Western blot analysis; assay type: functional, cell-based

- inhibition [5]: Active
- inhibition [16]: Active
- inhibition [18]: Active
- pIC50 (HeLa [20]): 5.50
- inhibition [23]: inactive
- inhibition [26]: Active
- inhibition [30]: Active
SMILES: CC(C)=CC[C@@H](OC(=O)CCCC[C@@H]1CCSC(c2ccccc2)S1)C1=CC(=O)c2c(O)ccc(O)c2C1=O (stereo not given in full)
- Activity (HeLa [1]): 19%
- Activity (HeLa [2]): 5.03%
- Activity (HeLa [3]): 10%
- Activity (HeLa [4]): Active
- fold change (FC) (HeLa [6]): 5
- Activity (HeLa [7]): Active
- viability at 6 µM (HeLa [8]): 48.8%
- Activity (HeLa [9]): 82.2%
- Activity (HeLa [10]): 42.1%
- Activity (HeLa [11]): 55.2%
- Activity (HeLa [12]): 29.9%
- Activity (HeLa [13]): 3.9%
- Activity (HeLa [14]): 42.7%
- Activity (HeLa [15]): 15.8%
- Activity (HeLa [17]): 22.9%
- Activity (Mus musculus): Active
- Activity (HeLa [19]): 26.1%
- Activity (HeLa [21]): 48.9%
- Activity (HeLa [22]): 58.4%
- Activity (HeLa [24]): Active
- Activity (HeLa [25]): Active
- Activity (HeLa [27]): 32.67%
- viability at 6 µM (HeLa [28]): 26.4%
- Activity (HeLa [29]): Active
- Activity (HeLa [31]): 37.5%
- pIC50 (L02): 3.93
- Activity (HeLa [32]): 6.4%
- Activity (HeLa [33]): Active
